Laboratory results published in US20250295619A1, “Use of Salvianolic Acid E in the Preparation of Drugs Targeting Senescent Cells, Inhibiting Tumors or Extending Lifespan” (Shanghai Institute of Nutrition and Health, Chinese Academy …, priority 2024, published 2025).
Entries after “also recorded” stand apart in the source; their conditions may differ.

What was measured:
PSC27 [1] = experiment: Caspase 3/7 apoptosis detection in senescent PSC27 cells (IncuCyte); type: cell-based, human; conditions: 20 μM QVD-OPh, 200 μM SAE
Experimental: PSC27 cells gradually entered the senescent stage after being treated with BLEO for 12 hours under culture conditions. 200 μM SAE was added to the medium of senescent cells starting from day 7, NucLight Rapid Red reagent was used to label the cells and caspase 3/7 reagent (IncuCyte) was used for apoptosis detection. Caspase 3/7 activity was detected every 4 hours (n=3).
Statistical differences are obtained by two-way ANOVA (Turkey'test).
PSC27 cells were plated in a 96-well dish, and the cells were induced to senescence under 50 μg/ml of BLEO treatment. SAE and ABT263 were added at concentrations of 200 μM and 1.25 μM, respectively. Cell culture medium was supplemented with Incucyte Nuclight fast Red Reagent (Essen Bioscience) and Incucyte C-3/7 Apoptosis Reagent (Essen Bioscience). Representative field of view was selected to take pictures.

[2] = system: PC3/PSC27 transplanted tumors; experiment: PC3/PSC27 xenograft tumor volume in NOD/SCID mice; type: in vivo, mouse; conditions: for effect on tumor volume of chemotherapeutic drug combined with SAE: combination with SAE vs chemotherapeutic drug alone; for effect on tumors when combined with MIT: combination with MIT vs MIT alone
Experimental: Every two weeks was a dosing cycle, and MIT (mitoxantrone) was intraperitoneally administered to the mice on the first day of the 3rd/5th/7th weeks. From the first day of the 5th week, the mice were intraperitoneally administered with SAE, […]. After the 8-week course of treatment, the mice were dissected for pathological identification and expression analysis.
All experimental mouse experiments were carried out in strict accordance with the relevant regulations of the Institutional Animal Care and Use Committee (IACUC), Shanghai Institutes for Biological Sciences, Chinese Academy of Sciences. Immuno-deficient mice (NOD-SCID mice, ICR) (body weight about 25 g) aged 6-8 weeks were used for animal experiments related to the present patent. Stromal cells PSC27 and epithelial cells PC3 were mixed at a predetermined ratio of 1:4, and each graft contained 1.25×10^6 cells for tissue remodeling. The xenograft tumors were implanted into mice by subcutaneous transplantation, and the animals were euthanized 8 weeks after the end of the transplantation surgery. Tumor volume was calculated according to the following formula: V=(π/6)×((1+w)/2)3 (V, volume; l, length; w, width).
(§1) In a preclinical treatment trial, subcutaneously transplanted mice were fed with a standard experimental diet, after 2 weeks chemotherapy drugs mitoxantrone (MIT, dose: 0.2 mg/kg) and/or SAE (500 μl, dose: 10 mg/kg) via intraperitoneal administration. The time points were: the former was administrated on the first day of the 3rd, 5th and 7th weeks, and the latter was administrated on the first day of the 5th and 7th weeks. A total of 3 cycles of MIT administration were carried out throughout the course of treatment, and each cycle lasted for 2 weeks. After the course of treatment, mouse tumors were harvested for volume measurement and histological analysis. Each mouse cumulatively received 0.6 mg/kg body weight of MIT and 30 mg/kg body weight of SAE. In order to cause systemic expression of SASP factors induced by chemotherapy, MIT was administered to mice through intravenous infusion according to the above steps and sequence, but the dose was reduced to 0.1 mg/kg body weight/each time (the cumulative dose of MIT received in the whole course of treatment was 0.3 mg/kg body weight) to reduce drug-related toxicity. The chemotherapy experiment ended at the end of the 8th week, and the mice were dissected immediately after sacrifice, and the xenograft tumors were collected and used for pathological system analysis.

PSC27 [3] = experiment: SA-β-Gal staining of PSC27 cells (bleomycin-induced senescence, increasing SAE concentration); type: cell-based, human; conditions: PSC27 treated with bleomycin 50 μg/ml, vs control cells
Experimental: The P value of positive proportion of cells in these experimental groups for SAE at the concentrations of 100 μM, 200 μM, 400 μM, 800 μM, 1600 μM, 2000 μM and 3000 μM are statistically significant compared with the data at 0 μM.
(§2) To cause cell damage, 50 μg/mL bleomycin (bleomycin, BLEO) was added to the culture medium when PSC27 cells grew to 80% (abbreviated as PSC27-CTRL). After 12 hours of drug treatment, the cells were simply washed 3 times with PBS, left in the culture medium for 7-10 days, and then the subsequent experiments were performed.
Senescence-associated B-galactosidase (SA-β-Gal) staining was performed following a previously reported procedure (Debacq-Chainiaux, et. al., 2009). Briefly, cells in culture dishes were washed with PBS and fixed at room temperature. Cells were fixed in 2% formaldehyde and 0.2% glutaraldehyde for 3 minutes. SA-β-Gal was used for staining with freshly prepared staining solution overnight at 37° C. Images were taken on the next day and the percentage of positive cells per unit area was calculated.

PSC27 [4] = experiment: BrdU and γH2AX immunofluorescence staining of PSC27 cells after bleomycin; type: cell-based, human; conditions: PSC27 treated with bleomycin
Experimental: as §2
For immunofluorescent staining, target cells were pre-seeded on a coverslip for at least 24 h after culture in dishes. After a brief wash, the cells were fixed with 4% paraformaldehyde in PBS for 8 min and blocked with 5% normal goat serum (NGS, Thermo Fisher) for 30 min. Mouse monoclonal antibody-anti-phospho-Histone H2A.X (Ser139) (clone JBW301, Millipore) and mouse monoclonal antibody-anti-BrdU (Cat #347580, BD Biosciences), and secondary antibody Alexa Fluor®488 (or 594)-conjugated F (ab′) 2 were sequentially added to the slides coated with the fixed cells. Nuclei were counterstained with 2 μg/ml of 4′, 6-diamidino-2-phenylindole (DAPI). The most representative image was selected from the three observation fields for data analysis and result display. FV1000 laser scanning confocal microscope (Olympus) was used to acquire confocal fluorescent images of cells.

[5] = system: senescent cells in tumor tissue; experiment: SA-β-Gal staining of tumor tissues of PC3/PSC27 tumor-bearing mice; type: in vivo, mouse; conditions: MIT alone
Experimental: Representative pictures after SA-β-Gal staining. Scale bar, 100 μm.
as §1

SASP factors = experiment: LCM and qRT-PCR of SASP factors in mouse lesions; type: in vivo; conditions: after MIT administration
Experimental: The stromal cells and cancer cells were specifically separated by LCM technology, total RNA was prepared and used for SASP expression detection. ^, P>0.05; *, P<0.05; **, P<0.01.
as §1, with “The chemotherapy experiment ended at the end of the 8th week, and the mice were dissected immediately after sacrifice, and the xenograft tumors were collected and used for pathological system analysis.” left out

PC3/PSC27 tumors = experiment: DNA damage and apoptosis in tumors of treated mice; type: in vivo, mouse; conditions: single agent compared with placebo, 7 days after first SAE administration
Source text: To investigate mechanisms directly supporting this senescence-associated pattern with expression and reversal of SASP in MIT-administered mice, the inventors dissected tumors in animals treated with both drugs 7 days after the first SAE administration, and the time point of 7 days after administration was selected mainly because drug-resistant clones had not yet formed in cancer cells in the lesion at this time. […] As supporting evidence, when SAE was applied during treatment, caspase 3 cleavage activity was increased, which was a typical hallmark of apoptosis (FIG. 29).

Question: With `CC(C)[C@H](NC(=O)c1ccc2ccccc2n1)C(=O)N[C@@H](CC(=O)O)C(=O)COc1c(F)cccc1F` [QVD, reference compound] as the compound, how does the “effect of pan-caspase inhibitor on killing of senescent cells by SAE” value (PSC27 [1]) read?
Answer: could prevent the killing of senescent cells by SAE

Question: Which results are given for `CC[C@]1(O)C[C@H]2CN(CCc3c([nH]c4ccccc34)[C@@](C(=O)OC)(c3cc4c(cc3OC)N(C=O)[C@H]3[C@@](O)(C(=O)OC)[C@H](OC(C)=O)[C@]5(CC)C=CCN6CC[C@]43[C@@H]65)C2)C1` [VIN, vincristine]?
Answer: effect on tumor volume of chemotherapeutic drug combined with SAE [2]: no further tumor shrinkage; tumor volume when chemotherapeutic drug used alone [2]: reduce the tumor volume

Question: Which results are given for bleomycin?
Answer: positive rate of senescence-associated β-galactosidase (SA-β-Gal) staining (PSC27 [3]): significant increase; BrdU incorporation rate (PSC27 [4]; vs control cells): greatly reduced; DNA damage repair foci (DDR foci) (PSC27 [4]; γH2AX staining): significantly increased; effect on tumor volume of chemotherapeutic drug combined with SAE [2]: roughly repeat the significant effect

Question: `CC(=O)O[C@@]12CO[C@@H]1C[C@H](O)[C@@]1(C)C(=O)[C@H](O)C3=C(C)[C@@H](OC(=O)[C@H](O)[C@@H](NC(=O)OC(C)(C)C)c4ccccc4)C[C@@](O)([C@@H](OC(=O)c4ccccc4)[C@H]21)C3(C)C` [DOC, docetaxel] was tested. Which “effect on tumor volume of chemotherapeutic drug combined with SAE” value [2] did it give?
Answer: no further tumor shrinkage

Question: And the “tumor volume when chemotherapeutic drug used alone” value [2]?
Answer: reduce the tumor volume

Question: What does the source list for `O=C1c2c(O)ccc(O)c2C(=O)c2c(NCCNCCO)ccc(NCCNCCO)c21` [MIT, mitoxantrone]?
Answer: reduction in tumor size compared to placebo-treated group ([2]; single agent, end of 8 weeks): 44.1%; senescent cells in the tumor tissue after MIT administration [5]: induced the appearance of a large number of senescent cells; expression of SASP factors in lesions (mainly stromal cells) (SASP factors): significantly increased; also recorded: significantly elevated expression; degree of DNA damage and apoptosis (PC3/PSC27 tumors): significant increase

Question: How did the “effect on tumor volume of chemotherapeutic drug combined with SAE” value [2] turn out when `COc1cccc2c1C(=O)c1c(O)c3c(c(O)c1C2=O)C[C@@](O)(C(=O)CO)C[C@@H]3O[C@H]1C[C@H](N)[C@H](O)[C@H](C)O1` [DOX, doxorubicin] was run?
Answer: roughly repeat the significant effect

Question: salvianolic acid J [SAJ] was tested. Which “effect on tumors when combined with MIT” value [2] did it give?
Answer: no significant effects

Question: Which “effect on tumors when combined with MIT” value [2] does the source give for `O=C(/C=C/c1ccc(O/C(=C\c2ccc(O)c(O)c2)C(=O)O)c(O)c1)OC(Cc1ccc(O)c(O)c1)C(=O)O` (stereo not shown) [SAI, salvianolic acid I] here?
Answer: no significant effects
